We go through 13 molecules from US20040024024A1, “Aromatic sulfone hydroxamates and their use as protease inhibitors” (priority 2001, published 2004).

Where only a bound is given, the exact number is not on record here.

Experiment in all cases: In vitro MMP inhibition, IC50 determination (fluorogenic substrate I)
Type in all cases: biochemical
Conditions in all cases: value outside parenthesis

Assay [1] has as its target T1, Human recombinant MMP-1 (Homo sapiens, UniProt P03956).
T1 construct: made in house; host or cells: MMP-1-transfected HT-1080 cells (spent media)
T1 sequence (P03956 100-469): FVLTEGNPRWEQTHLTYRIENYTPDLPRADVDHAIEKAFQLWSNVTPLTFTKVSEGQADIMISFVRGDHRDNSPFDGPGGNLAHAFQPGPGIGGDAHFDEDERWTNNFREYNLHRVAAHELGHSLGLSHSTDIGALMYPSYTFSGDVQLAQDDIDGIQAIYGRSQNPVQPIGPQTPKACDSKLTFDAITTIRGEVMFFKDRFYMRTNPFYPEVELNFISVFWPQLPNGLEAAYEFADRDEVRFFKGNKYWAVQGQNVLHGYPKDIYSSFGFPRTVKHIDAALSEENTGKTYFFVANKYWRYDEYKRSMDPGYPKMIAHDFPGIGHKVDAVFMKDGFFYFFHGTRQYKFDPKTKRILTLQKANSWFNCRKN
Put shortly:
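APMA- or trypsin-activated enzyme, purified from spent media of transfected HT-1080 cells, incubated at room temperature with 4 μM MCA-Pro-Leu-Gly-Leu-Dpa-Ala-Arg-NH2 and graded inhibitor in Tris buffer pH 7.5 (10 mM CaCl2, 0.05% Brij). Cleavage read by fluorescence (ex 328/em 415 nm); IC50 from fluorescence reduction versus inhibitor concentration.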

Assay [2] deals with T2, Human recombinant MMP-2 (Homo sapiens, UniProt P08253).
T2 construct: made in house; host or cells: MMP-2-transfected p2AHT2 cells
T2 sequence (P08253 110-660): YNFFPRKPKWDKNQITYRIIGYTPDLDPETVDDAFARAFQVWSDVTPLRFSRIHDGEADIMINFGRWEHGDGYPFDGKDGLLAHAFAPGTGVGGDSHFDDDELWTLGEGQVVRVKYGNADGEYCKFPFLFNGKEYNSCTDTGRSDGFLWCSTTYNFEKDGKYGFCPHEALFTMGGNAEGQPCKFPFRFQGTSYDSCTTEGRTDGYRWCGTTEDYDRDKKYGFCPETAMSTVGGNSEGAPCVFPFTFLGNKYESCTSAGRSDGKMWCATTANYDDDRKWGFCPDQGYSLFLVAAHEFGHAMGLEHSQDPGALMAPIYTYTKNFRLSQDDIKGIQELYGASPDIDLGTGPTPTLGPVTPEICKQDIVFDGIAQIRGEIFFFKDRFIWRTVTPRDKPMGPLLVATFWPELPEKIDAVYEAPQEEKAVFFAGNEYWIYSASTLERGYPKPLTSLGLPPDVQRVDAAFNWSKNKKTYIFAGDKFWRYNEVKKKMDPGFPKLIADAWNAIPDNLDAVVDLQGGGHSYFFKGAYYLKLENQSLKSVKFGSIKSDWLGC
Put shortly:
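APMA- or trypsin-activated recombinant MMP-2 was incubated at room temperature with serial inhibitor dilutions in Tris buffer pH 7.5 (100 mM NaCl, 10 mM CaCl2, 0.05% Brij), with DMSO from 1% stocks, and 4 μM substrate I. Cleavage was read by fluorescence at 328/415 nm; IC50 was taken from the loss of fluorescence versus inhibitor concentration.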

In assay [3] the target is T3, Human recombinant MMP-9 (Homo sapiens, UniProt P14780).
T3 construct: made in house; host or cells: MMP-9-transfected HT1080 cells (spent media)
T3 sequence (P14780 107-707 limits assumed): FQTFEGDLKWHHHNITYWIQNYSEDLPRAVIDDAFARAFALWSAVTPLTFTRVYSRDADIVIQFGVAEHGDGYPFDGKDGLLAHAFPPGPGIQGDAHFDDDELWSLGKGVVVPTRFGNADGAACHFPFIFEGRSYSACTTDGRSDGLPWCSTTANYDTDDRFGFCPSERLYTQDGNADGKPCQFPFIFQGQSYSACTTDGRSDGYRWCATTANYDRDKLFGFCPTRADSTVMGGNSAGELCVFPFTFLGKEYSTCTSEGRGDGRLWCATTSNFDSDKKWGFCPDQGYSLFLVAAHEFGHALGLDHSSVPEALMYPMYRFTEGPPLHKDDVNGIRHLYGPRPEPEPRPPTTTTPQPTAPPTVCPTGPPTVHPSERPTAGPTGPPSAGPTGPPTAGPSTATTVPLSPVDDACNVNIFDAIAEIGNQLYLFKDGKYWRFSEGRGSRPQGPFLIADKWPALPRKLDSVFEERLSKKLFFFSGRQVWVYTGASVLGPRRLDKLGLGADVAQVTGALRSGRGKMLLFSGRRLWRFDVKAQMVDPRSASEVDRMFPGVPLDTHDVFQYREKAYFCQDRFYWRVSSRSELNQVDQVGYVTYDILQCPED
Put shortly: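 MMP-9 proenzyme purified from transfected HT1080 cell media, activated with APMA or trypsin. Compound dilutions in pH 7.5 Tris/NaCl/CaCl2 buffer with 0.05% polyoxyethylene 23 lauryl ether, incubated at room temperature with 4 μM MCA/Dpa substrate I. IC50 from fluorescence loss (ex 328, em 415 nm) versus inhibitor concentration.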

Assay [4] has as its target T4, Human recombinant MMP-13 (Homo sapiens, UniProt P45452).
T4 construct: made in house; host or cells: baculovirus / insect cells
The essentials:
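Fluorescence at 415 nm (excitation 328 nm) reports Gly-Leu cleavage of 4 μM quenched methoxycoumarin peptide substrate I. Human recombinant MMP-13, activated by trypsin or APMA, was incubated at room temperature with varied inhibitor concentrations in pH 7.5 Tris/NaCl/CaCl2 buffer; IC50 derived from reduced fluorescence.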

Assay [5] addresses T5, Human recombinant MMP-14 (Homo sapiens, UniProt P50281).
T5 construct: The catalytic domain enzyme was expressed in E. coli inclusion bodies, solubilized in urea; made in house
Put shortly: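 Catalytic-domain MMP-14, expressed in E. coli and refolded, activated with APMA or trypsin; compounds incubated at room temperature with 4 μM fluorogenic substrate I (MCA-PLGL-Dpa-AR-NH2) in Tris/NaCl/CaCl2 buffer, pH 7.5. Fluorescence at ex 328/em 415 nm; IC50 from loss of fluorescence versus inhibitor concentration.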

Turning to `O=C1CN(c2ccc(OC(F)(F)F)cc2)C(=O)N1CCCOc1ccc(S(=O)(=O)C2(C(=O)NO)CCOCC2)cc1` [Example 144], the IC50 is greater than 10 µM in assay [1]; 0.239 µM in assay [2]; 5.99 µM in assay [3]; 0.0025 µM in assay [4]; greater than 10 µM in assay [5].
`C[C@@H]1C(=O)N(CCCOc2ccc(S(=O)(=O)C3(C(=O)NO)CCOCC3)cc2)C(=O)N1c1ccccc1` [Example 145]: the concentration for half-maximal inhibition (IC50) is greater than 10 µM in assay [1]; 0.817 µM in assay [2]; 9.44 µM in assay [3]; 0.002 µM in assay [4]; greater than 10 µM in assay [5].
For `COc1ccc(C(=O)C(O)CCOc2ccc(S(=O)(=O)C3(C(=O)NO)CCOCC3)cc2)cc1` (centres unmarked) [Example 184], the IC50 in assay [1] turned out to be 1.53 µM; in assay [2], 0.0304 µM; in assay [3] it was 0.104 µM; in assay [4], 0.0039 µM; in assay [5], 2.72 µM.
On the same counts, the results for `CN(C)Cc1ccc(C(=O)CCCCOc2ccc(S(=O)(=O)C3(C(=O)NO)CCN(C4CC4)CC3)cc2)cc1` [Example 187] are 3.87 µM, 0.0036 µM, 0.0112 µM, 0.0018 µM and 1.42 µM.
Take `O=C(NO)C1(S(=O)(=O)c2ccc(OCCSc3nc4ccc(Cl)cc4o3)cc2)CCN(C2CC2)CC1` [Example 188]: the IC50 in assay [1] is greater than 10 µM; in assay [2], 0.0047 µM; in assay [3], 0.0482 µM; in assay [4], 0.0003 µM; in assay [5] it was 3.54 µM.
In the case of `CCc1ccc(N2CCN(CCCOc3ccc(S(=O)(=O)C4(C(=O)NO)CCOCC4)cc3)C2=O)cc1` [Example 191], the IC50 in assay [1] is 6.96 µM; in assay [2], 0.341 µM; in assay [3] it was 0.383 µM; in assay [4], 0.0095 µM; in assay [5] it was greater than 10 µM.
As for `O=C1N(CCCOc2ccc(S(=O)(=O)C3(C(=O)NO)CCOCC3)cc2)CCN1c1ccc(C(F)(F)F)cc1` [Example 193], the IC50 in assay [1] is 5.93 µM; in assay [2] it was 0.312 µM; in assay [3], 0.273 µM; in assay [4], 0.0068 µM; in assay [5], greater than 10 µM.
The like results for `O=C1N(CCCOc2ccc(S(=O)(=O)C3(C(=O)NO)CCOCC3)cc2)CCN1c1ccc(OC(F)(F)F)cc1` [Example 194] were, in that order, greater than 10 µM, 0.222 µM, 0.516 µM, 0.0062 µM and greater than 10 µM.
On the same counts, the results for `O=C1N(CCCOc2ccc(S(=O)(=O)C3(C(=O)NO)CCOCC3)cc2)CCN1c1ccc(F)cc1` [Example 195] are 4.38 µM, 0.0206 µM, 0.0458 µM, 0.0075 µM and 2.74 µM.
On the same counts, the results for `O=C(NO)C1(S(=O)(=O)c2ccc(OCCCc3nnc(-c4ccc(OC(F)(F)F)cc4)o3)cc2)CCOCC1` [Example 200] are 7.5 µM, 0.084 µM, 1.21 µM, 0.0006 µM and greater than 10 µM.
Take `Cc1ccc(/C(C#N)=C/CCCOc2ccc(S(=O)(=O)C3(C(=O)NO)CCN(C4CC4)CC3)cc2)cc1C` [Example 201]: the IC50 in assay [1] is greater than 10 µM; in assay [2], 0.128 µM; in assay [3] it was 4.51 µM; in assay [4], 0.0007 µM; in assay [5] it was greater than 10 µM.
For the molecule `O=C(NO)C1(S(=O)(=O)c2ccc(OCCCSc3nc4ccccc4o3)cc2)CCN(C2CC2)CC1` [Example 203], the IC50 in assay [1] was greater than 10 µM; in assay [2], 0.0042 µM; in assay [3], 0.006 µM; in assay [4], 0.001 µM; in assay [5] it was greater than 10 µM.
Consider `Cc1ccc(-c2nnc(CCCOc3ccc(S(=O)(=O)C4(C(=O)NO)CCOCC4)cc3)o2)c(C)c1` [Example 204], for which the IC50 in assay [1] is greater than 10 µM; in assay [2], 0.146 µM; in assay [3], 1.82 µM; in assay [4], 0.0006 µM; in assay [5], greater than 10 µM.
